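Cells were grown in 96-well plates and exposed to each compound for 48 hours at five concentrations; endpoints were interpolated linearly between bracketing concentrations, or set to the highest concentration if not reached. Here, GI50 denotes the concentration required for 50% inhibition of growth.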 Calls of active or inactive are those of the source. No stated cut-off is given here; in the data, active = GI50 up to about 1.1 µM and inactive = higher.
Assays:
Test in all cases: NCI-60 cell line screen, 48 h
[1] = system: A498
[2] = system: HOP-62
[3] = system: HL-60
[4] = system: SF-539
[5] = system: M14
[6] = system: ACHN
[7] = system: PC-3
[8] = system: LOX IMVI
[9] = system: SK-OV-3
[10] = system: Malme-3M
[11] = system: SK-MEL-5
[12] = system: SK-MEL-28
[13] = system: MDA-N
[14] = system: UACC-257
[15] = system: HCC 2998
[16] = system: NCI-H226
[17] = system: UACC-62
[18] = system: HT-29
[19] = system: SNB-19
[20] = system: SF-268

Measured: GI50

O=c1n(-c2ccccc2)c(=O)n2c(-c3ccccc3)c(-c3ccccc3)n12
inactive: [1] > 100 µM | [2] > 100 µM | [3] 33.4 µM | [4] > 100 µM | [5] 52.1 µM | [6] > 100 µM | [7] 77.8 µM | [8] 72.1 µM | [9] > 100 µM | [10] > 100 µM | [11] > 100 µM | [12] > 100 µM | [13] > 100 µM | [14] > 100 µM | [15] 77.8 µM | [16] > 100 µM | [17] > 100 µM | [18] 70.1 µM | [19] > 100 µM

CCc1ccccc1NNc1cc(=O)[nH]c(=O)[nH]1
inactive: [1] 21.2 µM | [2] 19.3 µM | [3] 26.7 µM | [4] 22.6 µM | [5] 18.5 µM | [6] 16.9 µM | [7] 16.6 µM | [8] 14 µM | [9] 22.6 µM | [10] > 10 µM | [11] 17.3 µM | [12] 18.1 µM | [13] 17.9 µM | [14] 18.5 µM | [15] 16.6 µM | [16] 18.5 µM | [17] 19.6 µM | [20] > 10 µM | [18] 20.8 µM | [19] 20.3 µM

CCC1=CC2Cc3nc4cc(Cl)ccc4c(N)c3C(C1)C2 (stereo not drawn)
inactive: [1] 4.86 µM | [2] 8.2 µM | [3] 2.29 µM | [4] 9.27 µM | [5] 1.54 µM | [6] 7.8 µM | [7] 4.47 µM | [8] 4.54 µM | [9] 12.1 µM | [10] 4.55 µM | [11] 1.57 µM | [12] 2.86 µM | [13] 6.08 µM | [14] 2.11 µM | [15] 1.51 µM | [16] 1.48 µM | [17] 6.04 µM | [20] 4.62 µM | [18] 3.02 µM | [19] 9.12 µM

O=[N+]([O-])C(=C(N1CCCCC1)N1CCCCC1)/C(Cl)=C(\Cl)Br
inactive: [1] 21.5 µM | [2] 44.7 µM | [3] 15.2 µM | [4] 24.4 µM | [5] 20.6 µM | [6] 24.9 µM | [7] 22.9 µM | [8] 16.1 µM | [9] 48.1 µM | [10] 28.2 µM | [11] 21 µM | [12] 19.5 µM | [13] 29.2 µM | [14] 23.8 µM | [15] 17.5 µM | [16] 20.8 µM | [17] 10.7 µM | [20] 29.6 µM | [18] 29.7 µM | [19] 26.4 µM

O=[N+]([O-])c1ccccc1OCCOc1ccccc1[N+](=O)[O-]
inactive: [1] > 100 µM | [2] > 100 µM | [3] > 100 µM | [4] > 100 µM | [5] > 100 µM | [6] > 100 µM | [7] > 100 µM | [8] > 100 µM | [9] > 100 µM | [10] > 100 µM | [11] > 100 µM | [12] > 100 µM | [13] > 100 µM | [14] > 100 µM | [15] > 100 µM | [16] > 100 µM | [17] > 100 µM | [20] > 100 µM | [18] > 100 µM | [19] > 100 µM

COC(=O)C1(Cc2ccc3c(c2)CCC3)Cc2ccccc2C1O (stereo not drawn)
inactive: [1] 18.2 µM | [2] 22.9 µM | [3] 37.5 µM | [4] 17.5 µM | [5] 19.6 µM | [6] 18.3 µM | [7] 11.5 µM | [8] 15.1 µM | [9] 19.7 µM | [10] 18.1 µM | [11] 16.3 µM | [12] 16.9 µM | [13] 3.36 µM | [14] 15 µM | [15] 15.3 µM | [16] 17.3 µM | [17] 14.5 µM | [20] 19.4 µM | [18] 16.7 µM | [19] 19.3 µM

COc1ccc2oc(=N)c(C(N)=O)cc2c1
inactive: [1] 44.2 µM | [2] 55.2 µM | [3] 22.9 µM | [4] 66.5 µM | [5] 87.3 µM | [6] 30.3 µM | [7] 37.9 µM | [8] 37.4 µM | [9] > 100 µM | [11] 60.4 µM | [12] 79.4 µM | [13] 57.1 µM | [14] > 100 µM | [15] 32.7 µM | [16] 46.1 µM | [17] 29.8 µM | [20] 44.3 µM | [18] 56.4 µM | [19] 38.4 µM

COC(=O)C1=C(C)NC(CF)=C(C(=O)OC)C1c1cccc2c(=O)c3ccccc3oc12 (stereo not drawn)
inactive: [1] 5.53 µM | [2] 11.7 µM | [3] 4.65 µM | [4] 24.3 µM | [6] 15.1 µM | [7] 2.69 µM | [8] 7.4 µM | [9] 26.5 µM | [10] 11.2 µM | [11] 5.06 µM | [12] 16 µM | [13] 1.92 µM | [14] 16.5 µM | [15] 6.59 µM | [16] > 100 µM | [17] 10.6 µM | [20] 18.3 µM | [18] 3.58 µM

C[Si](C)(OCCS(=O)(=O)O)OC(=C1S(=O)(=O)OCCOS1(=O)=O)c1cccc2ccccc12
inactive: [1] 98.4 µM | [2] > 100 µM | [3] 11.6 µM | [4] > 100 µM | [5] > 100 µM | [6] > 100 µM | [7] > 100 µM | [8] > 100 µM | [10] > 100 µM | [11] > 100 µM | [12] > 100 µM | [13] > 100 µM | [14] > 100 µM | [15] 90.6 µM | [16] > 100 µM | [20] 64 µM | [18] > 100 µM | [19] > 100 µM

CC(=O)c1c2c(cc3c1CC1(Cc4ccccc4C1=O)C3)CCC2 (stereo not drawn)
inactive: [1] 17.5 µM | [2] 30.4 µM | [3] 5.2 µM | [4] 31.8 µM | [5] 27.3 µM | [6] 21.7 µM | [7] 41.3 µM | [8] 19.7 µM | [9] 48.9 µM | [10] 16.8 µM | [11] 10.3 µM | [12] 20.9 µM | [13] 28.6 µM | [14] 17.9 µM | [15] 27.5 µM | [16] 22.9 µM | [20] 37.9 µM | [18] 20.5 µM | [19] 45.2 µM
